Reference: ChEMBL document CHEMBL4033647, “Novel coumarin- and quinolinone-based polycycles as cell division cycle 25-A and -C phosphatases inhibitors induce proliferation arrest and apoptosis in cancer cells” (Eur J Med Chem, 2017)
pIC50: −log10 of the molar value. Calls of active or inactive are those of the source. The rule behind the calls is not given here.

Columns and labels:
[1] = test system: A549; test: Cytotoxicity against human A549 cells assessed as reduction in cell viability after 72 hrs by MTT assay; assay type: functional, cell-based; conditions: A549, 72 h
[2] = test system: A-431; test: Induction of apoptosis in human A431 cells assessed as caspase-3 cleavage at 10 uM after 24 hrs by Western blot analysis; assay type: functional, cell-based
[3] = test system: A-431; test: Cell cycle arrest in human A431 cells assessed as accumulation at G1 phase at 10 uM after 24 hrs by propidium iodide staining based flow cytometric analysis (reference value: 53.04%); assay type: functional
[4] = test system: A-431; test: Effect on CDC25C splice variant protein expression in human A431 cell extract at 50 uM after 24 hrs by Western blot analysis; assay type: functional, cell-based
[5] = target: T1, M-phase inducer phosphatase 3 (Homo sapiens) (UniProt P30307); test: Inhibition of CDC25C in human A431 cells assessed as increase in phosphorylation of CDK1 at Thr14/Tyr15 residues at 50 uM after 24 hrs by Western blot analysis; assay type: cell-based
T1 sequence (whole entry): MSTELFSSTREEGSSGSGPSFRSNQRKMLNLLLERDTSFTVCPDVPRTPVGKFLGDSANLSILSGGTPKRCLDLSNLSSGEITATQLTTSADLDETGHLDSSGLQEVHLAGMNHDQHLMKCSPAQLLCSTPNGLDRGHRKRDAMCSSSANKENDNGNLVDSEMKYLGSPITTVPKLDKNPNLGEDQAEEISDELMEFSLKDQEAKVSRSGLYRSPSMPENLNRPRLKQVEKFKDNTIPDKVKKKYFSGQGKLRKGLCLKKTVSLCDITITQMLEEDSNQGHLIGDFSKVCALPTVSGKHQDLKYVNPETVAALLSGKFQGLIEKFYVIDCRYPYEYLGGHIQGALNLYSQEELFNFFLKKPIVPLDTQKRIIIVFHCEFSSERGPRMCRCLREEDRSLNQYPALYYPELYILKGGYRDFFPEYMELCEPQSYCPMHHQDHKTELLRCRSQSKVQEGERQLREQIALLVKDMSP

[6] = test system: Hs 683; test: Cytotoxicity against human Hs683 cells assessed as reduction in cell viability after 72 hrs by MTT assay; assay type: functional, cell-based; conditions: Hs 683, 72 h
[7] = test system: A-431; test: Cell cycle arrest in human A431 cells assessed as accumulation at G2/M phase at 10 uM after 24 hrs by propidium iodide staining based flow cytometric analysis (reference value: 26.23%); assay type: functional
[8] = test system: A-431; test: Cytotoxicity against human A431 cells assessed as reduction in cell viability after 24 hrs by MTT assay; assay type: functional, cell-based; conditions: A-431, 24 h
[9] = Potency index, ratio of NSC95397 IC50 to compound IC50 against human U373n cells; assay type: functional
[10] = test system: A-431; test: Cell cycle arrest in human A431 cells assessed as accumulation at subG1 phase at 50 uM after 24 hrs by propidium iodide staining based flow cytometric analysis (reference value: 3.40%); assay type: functional
[11] = test system: A-431; test: Decrease in CDC25C protein expression level in human A431 cell extract at 50 uM after 24 hrs by Western blot analysis; assay type: functional, cell-based
[12] = target: T1, M-phase inducer phosphatase 3 (Homo sapiens); test: Inhibition of CDC25C in human A431 cells assessed as increase in CDK-mediated phosphorylation of histone H3 at Ser10 residues at 10 uM after 24 hrs by Western blot analysis; assay type: cell-based
[13] = test system: A-431; test: Cytotoxicity against human A431 cells assessed as reduction in cell viability at 10 uM after 24 hrs by MTT assay; assay type: functional
[14] = test system: A-431; test: Cell cycle arrest in human A431 cells assessed as accumulation at G2/M phase at 50 uM after 24 hrs by propidium iodide staining based flow cytometric analysis (reference value: 26.23%); assay type: functional
[15] = test system: A-431; test: Cell cycle arrest in human A431 cells after 24 hrs by propidium iodide staining based flow cytometric analysis; assay type: functional
[16] = test system: MCF7; test: Cytotoxicity against human MCF7 cells assessed as reduction in cell viability after 72 hrs by MTT assay; assay type: functional, cell-based; conditions: MCF7, 72 h
[17] = test system: PC-3; test: Cytotoxicity against human PC3 cells assessed as reduction in cell viability after 72 hrs by MTT assay; assay type: functional, cell-based; conditions: PC-3, 72 h
[18] = target: T2, M-phase inducer phosphatase 1 (Homo sapiens, UniProt P30304); test: Inhibition of recombinant human full length GST-tagged CDC25A expressed in Escherichia coli BL21-DE3 pLysS using 3-O-methylfluorescein phosphate as substrate after 2 hrs by fluorimetric analysis
T2 sequence (P30304 whole entry): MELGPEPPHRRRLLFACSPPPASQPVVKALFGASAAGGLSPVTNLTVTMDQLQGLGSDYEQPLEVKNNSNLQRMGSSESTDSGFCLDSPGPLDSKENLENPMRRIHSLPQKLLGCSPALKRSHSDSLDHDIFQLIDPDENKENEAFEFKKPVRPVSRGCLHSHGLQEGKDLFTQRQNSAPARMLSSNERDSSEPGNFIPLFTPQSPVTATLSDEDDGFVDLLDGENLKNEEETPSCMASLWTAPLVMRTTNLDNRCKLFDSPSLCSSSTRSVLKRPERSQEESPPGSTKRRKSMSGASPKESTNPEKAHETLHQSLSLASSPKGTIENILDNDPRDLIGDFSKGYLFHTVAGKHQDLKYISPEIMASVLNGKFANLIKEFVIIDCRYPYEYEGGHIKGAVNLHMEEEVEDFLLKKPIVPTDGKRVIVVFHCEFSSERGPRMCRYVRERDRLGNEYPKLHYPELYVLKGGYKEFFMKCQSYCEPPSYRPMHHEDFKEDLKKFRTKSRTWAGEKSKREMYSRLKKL

[19] = test system: A-431; test: Cell cycle arrest in human A431 cells assessed as accumulation at G1 phase at 50 uM after 24 hrs by propidium iodide staining based flow cytometric analysis (reference value: 53.04%); assay type: functional
[20] = test system: A-431; test: Cell cycle arrest in human A431 cells assessed as accumulation at S phase at 10 uM after 24 hrs by propidium iodide staining based flow cytometric analysis (reference value: 17.33%); assay type: functional
[21] = test system: A-431; test: Growth inhibition of human A431 cells at 10 uM by trypan blue dye based assay; assay type: functional, cell-based; conditions: TDE = time-dependent effect
[22] = target: T1, M-phase inducer phosphatase 3 (Homo sapiens); test: Inhibition of CDC25C in human A431 cells assessed as decrease in CDK-mediated phosphorylation of histone H3 at Ser10 residues at 50 uM after 24 hrs by Western blot analysis; assay type: cell-based
[23] = Cytotoxicity against human U373n cells assessed as reduction in cell viability after 72 hrs by MTT assay; assay type: functional, cell-based
[24] = test system: SK-MEL-28; test: Cytotoxicity against human SK-MEL-28 cells assessed as reduction in cell viability after 72 hrs by MTT assay; assay type: functional, cell-based; conditions: SK-MEL-28, 72 h
[25] = test system: A-431; test: Cell cycle arrest in human A431 cells assessed as accumulation at subG1 phase at 10 uM after 24 hrs by propidium iodide staining based flow cytometric analysis (reference value: 3.40%); assay type: functional
[26] = test system: A-431; test: Cell cycle arrest in human A431 cells assessed as accumulation at S phase at 50 uM after 24 hrs by propidium iodide staining based flow cytometric analysis (reference value: 17.33%); assay type: functional
[27] = test system: A-431; test: Cytotoxicity against human A431 cells assessed as cell viability at 10 uM after 48 hrs by MTT assay; assay type: functional; conditions: A-431, 48 h, read-out: Activity
[28] = target: T3, M-phase inducer phosphatase 3 (Homo sapiens, UniProt P30307); test: Inhibition of recombinant human full length GST-tagged CDC25C expressed in Escherichia coli BL21-DE3 pLysS using 3-O-methylfluorescein phosphate as substrate after 2 hrs by fluorimetric analysis
T3 sequence (P30307 whole entry): T1 sequence (whole entry)

[29] = test system: A-431; test: Induction of apoptosis in human A431 cells assessed as PARP cleavage at 10 uM after 24 hrs by Western blot analysis; assay type: functional, cell-based
[30] = test system: A-431; test: Induction of apoptosis in human A431 cells assessed as caspase-3 cleavage at 10 to 50 uM after 24 hrs by Western blot analysis; assay type: functional, cell-based
[31] = target: T1, M-phase inducer phosphatase 3 (Homo sapiens); conditions: 10 to 50 uM
Description: Inhibition of CDC25C in human A431 cells assessed as increase in CDK-mediated phosphorylation of histone H3 at Ser10 residues at 10 to 50 uM after 24 hrs by Western blot analysis

[32] = species on record: Homo sapiens; test: Selectivity ratio of IC50 for recombinant human full length GST-tagged CDC25A expressed in Escherichia coli BL21-DE3 pLysS to IC50 for recombinant human full length GST-tagged CDC25C expressed in Escherichia coli BL21-DE3 pLysS
[33] = target: T4, M-phase inducer phosphatase 2 (Homo sapiens, UniProt P30305); test: Inhibition of recombinant human GST-tagged truncated CDC25B expressed in bacterial expression system using 3-O-methylfluorescein phosphate as substrate after 2 hrs by fluorimetric analysis
T4 sequence (P30305 whole entry): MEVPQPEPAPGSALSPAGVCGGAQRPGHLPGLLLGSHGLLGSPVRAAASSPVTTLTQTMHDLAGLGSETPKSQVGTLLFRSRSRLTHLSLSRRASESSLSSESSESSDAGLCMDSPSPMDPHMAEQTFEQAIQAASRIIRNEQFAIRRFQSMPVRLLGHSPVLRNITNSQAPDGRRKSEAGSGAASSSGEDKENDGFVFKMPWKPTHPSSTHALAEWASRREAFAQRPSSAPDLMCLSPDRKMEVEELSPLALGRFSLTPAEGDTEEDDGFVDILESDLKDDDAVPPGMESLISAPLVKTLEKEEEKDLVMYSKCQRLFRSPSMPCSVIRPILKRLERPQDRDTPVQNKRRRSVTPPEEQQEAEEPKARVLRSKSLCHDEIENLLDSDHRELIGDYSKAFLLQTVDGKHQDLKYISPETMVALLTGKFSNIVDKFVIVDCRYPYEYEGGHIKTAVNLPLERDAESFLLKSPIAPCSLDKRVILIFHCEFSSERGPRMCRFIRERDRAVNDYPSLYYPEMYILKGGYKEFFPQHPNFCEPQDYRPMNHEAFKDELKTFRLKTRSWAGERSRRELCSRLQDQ

[34] = test system: A-431; test: Induction of apoptosis in human A431 cells assessed as caspase-3 cleavage at 50 uM after 24 hrs by Western blot analysis; assay type: functional, cell-based
[35] = test system: A-431; test: Induction of apoptosis in human A431 cells assessed as PARP cleavage at 50 uM after 24 hrs by Western blot analysis; assay type: functional, cell-based

| Compound | pIC50 [1] | Activity [3] [%] | Activity [4] | inhibition [5] | pIC50 [6] | Activity [7] [%] | pIC50 [8] | Activity [10] [%] | Activity [11] | Activity [14] [%] | pIC50 [16] | pIC50 [17] | pIC50 [18] | Activity [19] [%] | Activity [20] [%] | pIC50 [23] | pIC50 [24] | Activity [25] [%] | Activity [26] [%] | pIC50 [28] | other results |
| --- | --- | --- | --- | --- | --- | --- | --- | --- | --- | --- | --- | --- | --- | --- | --- | --- | --- | --- | --- | --- | --- |
| O=C1C=CC(=O)c2c1ccc1c2c(=O)[nH]c2ccc(Cl)cc21 | 6.52 | 44.5 | Active | inactive | 6.70 | 26.65 | 5.50 | 33.63 | Active | 27.78 | 5.92 | 6.52 | 5.36 | 31.53 | 13.39 | 7.00 | 6.52 | 15.46 | 7.07 | 5.24 | Activity [2]: Active; Ratio IC50 [9]: 18.5; inhibition [12]: Active; Activity [13]: >60%; Activity [15]: Dose-dependent effect; growth inhibition (GI) [21]: Tde; inhibition [22]: inactive; viability at 10 µM [27]: 10%; Activity [29]: Active |
| O=C1C=CC(=O)c2c1ccc1c2c(=O)[nH]c2ccccc21 | 5.74 | 57.01 | Active |  | 5.55 | 24.83 | 5.09 | 12.81 | Active | 26.28 | 6.05 | 6.05 | 5.11 | 53.93 | 11.9 | 5.57 | 5.82 | 6.26 | 6.98 | 5.44 | Activity [30]: inactive; inhibition [31]: Active; Ratio IC50 [32]: 2 |
| O=C1C=CC(=O)c2c1ccc1c2c(=O)oc2ccccc21 | 4.59 | 45.05 | Active | Active | 4.70 | 29.39 | 4.80 | 16.51 | Active | 29.72 | 4.80 | 4.49 | 5.24 | 42.38 | 18.71 | 4.74 | 4.54 | 6.85 | 11.39 | 5.64 | pIC50 [33]: 4.84; inhibition [31]: Active; Activity [34]: Active |
| O=C1C=CC(=O)c2c1ccc1c2c(=O)oc2cc(Cl)ccc21 | 5.49 | 48.91 | inactive |  | 5.92 | 28.92 | 4.54 | 4.07 | inactive | 25.91 | 5.55 | 5.36 | 5.79 | 53.78 | 18.57 | 5.43 | 5.11 | 3.6 | 16.24 | 6.11 | Activity [30]: inactive; Activity [35]: inactive |
